{"source": "patent US8395037B2", "about": "“Pharmaceutical compositions for treating/preventing motor organ diseases” (Mitsubishi Corporation, priority 2005, dated 2013)", "key": {"[1]": {"system": "MMP-1", "experiment": "MMP-1 concentration in synovial fluid of osteoarthritis model knee joints (ELISA)", "assay_type": "in vivo, rabbit", "details": "various concentrations, sequential measurement, versus control knees", "protocol": "(§1) Sequential biochemical examinations of blood and synovial fluid were also performed (pre-administration and fourth- and eighth-week post-administration of water-solubilized fullerene). The observed biochemical examination items were (A) hepatic function (GOT and GPT), renal function (urea nitrogen and creatinine), and electrolytes (Na, K, and Cl), (B) extracellular matrix-degrading enzyme production ability (MMP-1, 3, and 13), and (C) cartilage matrix-synthesizing ability (proteoglycan). The items of (A) were measured by commercially available testing equipments and items of (B) and (C) were measured by ELISA method."}, "[2]": {"system": "cultured chondrocytes", "experiment": "Chondrocyte-proliferation ability under cartilage degenerating factors", "assay_type": "cell-based", "details": "cultured chondrocytes treated with IL-1β and H2O2"}, "[3]": {"system": "proteoglycan", "experiment": "Proteoglycan production in cultured chondrocytes (western blotting)", "assay_type": "cell-based, human", "details": "chondrocytes treated with cartilage degenerating factors", "protocol": "Chondrocytes prepared according to the above method and chondrocytes of the control groups were collected with a cell scraper, and centrifuged to remove the supernatant. Then, 0.5% Triton X-100 aqueous solution was added thereto, and ultrasonic disintegration was performed on ice for one minute, to obtain a protein extract. The concentrations of the respective protein solutions were measured, and each sample was placed on 5% to 10% gradient SDS-polyacrylamide electrophoresis gel at 100 ng/lane, and subjected to electrophoresis.\nProteins in the gel were transferred onto a polyvinylidene difluoride membrane (manufactured by Pharmacia Co.) using a semidry blotting apparatus (manufactured by Amersham). The membrane was blocked with 5% skim milk (manufactured by Morinaga Co.), and then treated with 5 μg/ml of anti-proteoglycan monoclonal antibodies (manufactured by Chemicon Co.) at room temperature for one hour. The membrane was washed with PBS containing 0.01% Tween-20 (hereunder, abbreviated as “TPBS”), and then treated with 5,000-fold-diluted peroxidase-labeled anti-mouse IgG antibodies (manufactured by Amersham) as secondary antibodies, at room temperature for one hour. […]"}, "[4]": {"system": "MMP-13", "experiment": "MMP-13 concentration in synovial fluid of osteoarthritis model knee joints (ELISA)", "assay_type": "in vivo, rabbit", "details": "various concentrations, sequential measurement, versus control knees", "protocol": "as §1"}, "[5]": {"system": "osteoarthritis model rabbits", "method": "Osteoarthritis animal model was prepared according to a general method. NZW-strain male rabbits (2 to 2.5 kg, purchased from Kitayama Labes Co.) were habituated for about one week, and both knee joint sites were shaved and disinfected with an iodine antiseptic agent under anesthesia with a combined administration of ketamine hydrochloride and xylazine (intramuscular administration, or intravenous administration if the anesthetic effect was low). The epidermis inside the knee joints was incised to expose the anterior cruciate ligament and medial collateral ligament, which were then cut out. After confirming and incising the articular capsule, the medial meniscus was exposed and totally extracted. Tissues around the articular capsule, patellar tendon, and epidermis were sutured thereafter. At the time of suturing, the operated site was washed with a physiological salt solution containing an antibiotic (injectable Viccillin, Meiji Seika) (500 mg (titer) as ampicillin sodium/20.0 ml of physiological saline solution).\nFrom the postoperative first week, 2.0 ml of a hydroxylated C60 fullerene solution (100 μM, adjusted with the solvent polyethylene glycol) was injected into the right knee joint cavity, and 2.0 ml of solvent alone was injected into the left knee joint cavity, using a 23-gauge injection needle intraarticularly twice a week. […] Thickness of the degenerated cartilage layer and the number of chondrocytes in the degenerated cartilage layer were measured. The thickness of the degenerated cartilage layer was expressed as a relative value assuming that the immediate postoperative thickness (zeroth week) was 100%.\nMoreover, proteoglycan content decrease in articular cartilage involved with cartilage degeneration was evaluated by safranin O staining. The evaluation result was expressed as an area ratio (%) to immediate postoperative proteoglycan-stained area."}, "[6]": {"system": "MMP-3", "experiment": "MMP-3 concentration in synovial fluid of osteoarthritis model knee joints (ELISA)", "assay_type": "in vivo, rabbit", "details": "various concentrations, sequential measurement, versus control knees", "protocol": "as §1"}, "[7]": {"system": "proteoglycan", "experiment": "Cartilage matrix (proteoglycan) production in cultured chondrocytes (ELISA)", "assay_type": "cell-based, human", "details": "for Cartilage matrix (proteoglycan)-synthesizing ability: decreased by IL-1β or H2O2, 50 and 100 μM, 24 h", "protocol": "Chondrocytes isolated from human articular cartilage tissues were used for cultured cells. After obtaining informed consent, cartilage tissues were collected from surgically-removed tissues from eight osteoarthritis patients. The collected tissues were sliced and then treated in a liquid low-glucose Dulbecco's modified Eagle's medium (DMEM, manufactured by Gibco Co.) containing 1.5 mg/ml collagenase B at 37° C. overnight, to isolate chondrocytes for culture. The cells were normally cultured in a culture flask (culture area: 25 cm^2), and in a polystyrene culture dish (diameter: 6 cm) for use in the experiments. The cell culture was performed using a DMEM medium added with inactivated fetal bovine serum (FBS, manufactured by TRACE Co.) at 10% volume of the medium, and also 2 mM L-glutamine, 25 mM HEPES, and penicillin and streptomycin at 100 units/ml, in either a CO2 incubator (normoxic condition) which was set at 5% CO2+95% air, or a low oxygen chamber (hypoxic condition) which was set at 1% O2+5% CO2+94% N2, at 37° C. under saturated humidity.\nInfluence of hydroxylated 60 fullerene on cartilage matrix (proteoglycan or type II collagen) production ability decreased by cartilage catabolism inducers was analyzed using ELISA.\nChondrocytes that had been isolated and cultured by the above method (1) were subjected to two secondary cultures. Then, these cells in a subconfluent state were disseminated into a 24 well-culture plate at 1×10^5 cells/well. After incubation for 12 hours, the wells were washed with PBS and the medium was replaced with a fresh 10% FBS-containing DMEM. […]\nThe production quantities (concentrations) of the cartilage matrix (proteoglycan and type II collagen) in the culture supernatant were determined using ELISA kits (a kit for proteoglycan, manufactured by BioSource; and a kit for type II collagen, manufactured by Chondrex, Inc.), which is the standard technique currently known in the art."}}}
{"substance": "hydroxylated C60 fullerene", "values": [{"measurement": "MMP-1 concentration in synovial fluid", "setting": "[1]", "result": "MMP-1 production inhibitory effect was observed"}, {"measurement": "Decrease of chondrocyte-proliferation ability", "setting": "[2]", "result": "inhibited decrease of chondrocyte-proliferation ability"}, {"measurement": "Production of proteoglycan (western blotting)", "setting": "[3]", "result": "the inhibition against the production of cartilage matrix, proteoglycan, due to the cartilage degenerating factors was inhibited"}, {"measurement": "Production of proteoglycan (western blotting)", "setting": "[3]; listed as fullerene", "result": "restored"}, {"measurement": "MMP-13 concentration in synovial fluid", "setting": "[4]", "result": "MMP-13 production inhibitory effect was observed"}, {"measurement": "Chondrocytes and cartilage matrix, histology", "setting": "[5]; 100 μM, 2.0 ml intraarticular twice a week, postoperative sixth and eighth week", "result": "histologically maintained"}, {"measurement": "Degeneration of the knee joint cartilage tissue", "setting": "[5]; 100 μM, 2.0 ml intraarticular twice a week, versus solvent alone", "result": "mild"}, {"measurement": "Swelling/flare in articular local parts, influence on systemic condition", "setting": "[5]; rabbit, in vivo", "result": "neither swelling/flare in articular local parts nor influence on systemic condition was observed"}, {"measurement": "MMP-3 concentration in synovial fluid", "setting": "[6]", "result": "No remarkable difference"}, {"measurement": "Cartilage matrix (proteoglycan)-synthesizing ability", "setting": "[7]", "result": "restored cartilage matrix synthesis"}, {"measurement": "Cartilage matrix (proteoglycan)-synthesizing ability", "setting": "[7]; listed as hydroxylated 60 fullerene", "result": "able to restore the decreased synthesizing ability"}, {"measurement": "Proteoglycan synthesizing ability", "setting": "[7]; fullerene alone, versus control groups", "result": "increased as compared to that of the control groups"}]}
